Source: patent publication US11708344B2, “Flavone derivatives for the treatment and prophylaxis of hepatitis B virus disease” (Hoffmann-La Roche Inc., priority 2018, dated 2023)
pIC50: −log10 of the molar value. Like-named read-outs stand apart in the source and are kept apart here.

How the values were obtained:
[1] = tested on: HBeAg (surrogate marker for cccDNA) in HepDES19 cells; test: Engineered HepDES19 primary screen assay (HBeAg ELISA); assay type: cell-based, HBV
How it was run: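 HepDES19 cells were induced by Tet withdrawal for 8 days, then treated with half-log compound dilutions (1% DMSO final) for 5 days at 37 °C. HBeAg was measured by ELISA as the cccDNA surrogate, viability by CCK-8, and IC50 from a 4-parameter logistic fit.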

[2] = tested on: HBsAg in HBV-infected PHH; test: Cryopreserved primary human hepatocytes (PHH) HBV infection assay, extracellular HBsAg (CLIA); assay type: cell-based
Method: This assay is used to confirm the anti-HBV effect of the compounds in HBV PHH infection assay. Cryopreserved PHH (BioreclamationIVT, Lot YJM) was thawed at 37° C. and gently transferred into pre-warmed InVitroGRO HT medium (BioreclamationIVT, Cat. S03317). The mixture was centrifuged at 70 relative centrifugal force (RCF) for 3 minutes at RT, and the supernatant was discarded. Pre-warmed InVitroGRO CP medium (BioreclamationIVT, Cat #S03316) was added to the cell pellet to gently re-suspend cells. The cells were seeded at the density of 5.8×10^4 cells per well to collagen I coated 96-well plate (Gibco, Cat. A1142803) with the InVitroGRO CP medium. All plates were incubated at 37° C. with 5% CO2 and 85% humidity.
At 20 hours after plating, the medium was changed to PHH culture medium (Dulbecco's Modified Eagle Medium (DMEM)/F12 (1:1) (Gibco, Cat. 11320-033), 10% fetal bovine semm (Gibco Cat. 10099141), 100 U/mL penicillin, 100 μg/mL streptomycin (Gibco, Cat. 151401-122), […] (Invitrogen Cat. PHG0311L), 20 ng/mL dexamethasone (Sigma, Cat. D4902) and 250 ng/mL human recombinant insulin (Gibco, Cat. 12585-014)). And the cells were incubated at 37° C. with 5% CO2 and 85% humidity for 4 hours. The medium was then changed to pre-warmed PHH culture medium containing 4% polyethylene glycol (PEG) MW8000 (Sigma, Cat. P1458-50 ML) and 1% DMSO (Sigma, Cat. D2650). 5.8×10^6 genomic equivalents of HBV were added into the medium.
At 24 hours post-infection, the cells were gently washed with PBS and refreshed with PHH culture medium supplemented with 1% DMSO, and 0.25 mg/mL Matrix gel (Corning, Cat. 356237) at 200 μL per well. All plates were immediately placed in at 37° C. CO2 incubator.
24 hours later, serial dilutions of compounds made with DMSO were further diluted with the same culture medium (PHH culture medium supplemented with 1% DMSO and 0.25 mg/mL Matrix gel as described above) before they were added to the cells to reach desired final compound concentrations and 1% DMSO concentration. The medium containing the compounds were refreshed every three days.
At 9 days post-compound treatment, extracellular HBsAg level were measured with Chemiluminescence Immuno Assay (CLIA) kit (Autobio, HBsAg Quantitative CLIA). Extracellular HBV DNA was extracted by MagNA Pure 96 system (Roche) and then determined by quantitative PCR with the following primers and probe: […]
HBsAg IC50 and HBV DNA IC50 values were derived from the dose-response curve using 4 parameter logistic curve fit method. The compounds of formula (I) have HBsAg IC50<20 μM, particularly <1 μM; and HBV DNA IC50<50 μM.

[3] = Human microsome stability assay; assay type: in vitro ADME; settings: human liver microsomes, 1 μM test compound, 0.5 mg/mL microsomal protein, 37° C., pH 7.4, 0-30 minutes
How it was run: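 Compound (1 μM) incubated at 37 °C with human liver microsomes (0.5 mg/mL protein) in 100 mM potassium phosphate, pH 7.4, after 10 min preincubation; started with NADPH regenerating system. Sampled at 0–30 min, quenched with cold ACN; remaining parent quantified by LC-MS/MS, with no-NADPH controls.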

[4] = Hepatitis B virus, HepDES19, 120 h, read-out: IC50 (HBeAg level, HepDES19 primary screen assay), HepDES19 cells, 5 days compound incubation, HBeAg ELISA
[5] = Hepatitis B virus, Hepatocyte, 216 h, read-out: HBsAg IC50, Cryopreserved PHH infected with HBV, 9 days post-compound treatment, extracellular HBsAg
[6] = read-out: IC50 (HBeAg level, HepDES19 primary screen assay), HepDES19 cells, 5 days compound incubation, HBeAg ELISA

SMILES	pIC50 [1, 4]	pIC50 [2, 5]	pIC50 [1, 6]	pIC50 ([2]; read-out: HBsAg IC50, Cryopreserved PHH infected with HBV, 9 days post-compound treatment, extracellular HBsAg)	Clearance of Human microsome [3] [mL/min/kg]
O=C(O)CCOc1cc(OC(F)(F)F)c(Br)cc1-c1cc(=O)c2cccc(Cl)c2o1 [Example A016, 3-[4-bromo-2-(8-chloro-4-oxo-chromen-2-yl)-5-(trifluoromethoxy)phenoxy]propanoic acid]	5.99	6.08			
COC(=O)CCOc1cc(C(F)(F)F)ccc1-c1cc(=O)c2cccc(Cl)c2o1 [Example A002, methyl 3-[2-(8-chloro-4-oxo-chromen-2-yl)-5-(trifluoromethyl)phenoxy]propanoate]	6.10	5.74			
CN(C)S(=O)(=O)CCCOc1cc(Br)ccc1-c1cc(=O)c2cccc(Cl)c2o1 [Example B071, 3-[5-bromo-2-(8-chloro-4-oxo-chromen-2-yl)phenoxy]-N,N-dimethyl-propane-1-sulfonamide]	6.01	5.31			
Cc1cc(-c2cc(=O)c3cccc(Cl)c3o2)c(OCCO[C@H]2C[C@@H](C(=O)O)C2)cc1Br [Example C031-A, Cis-3-[2-[5-bromo-2-(8-chloro-4-oxo-chromen-2-yl)-4-methyl-phenoxy]ethoxy]cyclobutanecarboxylic acid]	5.21	5.94			
Cc1cc(-c2cc(=O)c3cccc(Cl)c3o2)c(OCCO[C@H]2C[C@@H](C(=O)O)C2)cc1Cl [Example C055-A, Cis-3-[2-[5-chloro-2-(8-chloro-4-oxo-chromen-2-yl)-4-methyl-phenoxy]ethoxy]cyclobutanecarboxylic acid]	5.39	5.03			
COc1cc(OCCO[C@H]2C[C@@H](C(=O)O)C2)c(-c2cc(=O)c3cccc(Cl)c3o2)cc1C [Example C041-A, Cis-3-[2-[2-(8-chloro-4-oxo-chromen-2-yl)-5-methoxy-4-methyl-phenoxy]ethoxy]cyclobutanecarboxylic acid]	5.11	5.23			
O=C(O)CCOc1cc2c(cc1-c1cc(=O)c3cccc(Cl)c3o1)OCO2 [Example A011, 3-[[6-(8-chloro-4-oxo-chromen-2-yl)-1,3-benzodioxol-5-yl]oxy]propanoic acid]	6.38	6.03			
O=C(O)COCCCOc1cc(Br)ccc1-c1cc(=O)c2cccc(Cl)c2o1 [Example C010, 2-[3-[5-bromo-2-(8-chloro-4-oxo-chromen-2-yl)phenoxy]propoxy]acetic acid]	6.16	5.03			
Cc1cc(-c2cc(=O)c3cccc(Cl)c3o2)c(O[C@H]2C[C@@H](C(=O)O)C2)cc1Br [Example B013-A, Cis-3-[5-bromo-2-(8-chloro-4-oxo-chromen-2-yl)-4-methyl-phenoxy]cyclobutanecarboxylic acid]	6.04	5.14			
COc1cc(OCCC(=O)O)c(-c2cc(=O)c3cccc(Cl)c3o2)cc1C [Example A012, 3-[2-(8-chloro-4-oxo-chromen-2-yl)-5-methoxy-4-methyl-phenoxy]propanoic acid]	6.19	5.68			
Cc1cc(-c2cc(=O)c3cccc(Cl)c3o2)c(OCCC(=O)O)cc1Br [Example A006, 3-[5-bromo-2-(8-chloro-4-oxo-chromen-2-yl)-4-methyl-phenoxy]propanoic acid]	5.91	5.97			
O=C(COc1cc(C(F)(F)F)ccc1-c1cc(=O)c2cccc(Cl)c2o1)N1CCOCC1 [Example A092, 8-chloro-2-[2-(2-morpholino-2-oxo-ethoxy)-4-(trifluoromethyl)phenyl]chromen-4-one]	5.95	5.55			
O=C(O)CCOc1cc(Br)cc(F)c1-c1cc(=O)c2cccc(Cl)c2o1 [Example A020, 3-[5-bromo-2-(8-chloro-4-oxo-chromen-2-yl)-3-fluoro-phenoxy]propanoic acid]	6.11	5.12			
O=C(O)C1CC(OCCOc2cc(N3CCOC3=O)ccc2-c2cc(=O)c3cccc(Cl)c3o2)C1 (stereo not drawn) [Example C062, 3-[2-[2-(8-chloro-4-oxo-chromen-2-yl)-5-(2-oxooxazolidin-3-yl)phenoxy]ethoxy]cyclobutanecarboxylic acid]	5.82	5.17			
Cc1ccc(-c2cc(=O)c3cccc(Cl)c3o2)c(O[C@H]2C[C@H](C(=O)O)C2)c1 [Example B018-B, Trans-3-[2-(8-chloro-4-oxo-chromen-2-yl)-5-methyl-phenoxy]cyclobutanecarboxylic acid]	6.26	5.33			
O=c1cc(-c2ccc(Br)cc2OC[C@H]2C[C@H](C(=O)O)C2)oc2c(Cl)cccc12 [Example B025-B, Trans-3-[[5-bromo-2-(8-chloro-4-oxo-chromen-2-yl)phenoxy]methyl]cyclobutanecarboxylic acid]		5.51	5.64		
O=C(O)C1CC(Oc2cc(Br)ccc2-c2cc(=O)c3cccc(Cl)c3o2)C1 (stereo not drawn) [Example B001, 3-[5-bromo-2-(8-chloro-4-oxo-chromen-2-yl)phenoxy]cyclobutanecarboxylic acid]	6.67	5.99			
CCc1ccc(-c2cc(=O)c3cccc(Cl)c3o2)c(O[C@H]2C[C@@H](C(=O)O)C2)c1 [Example B019-A, Cis-3-[2-(8-chloro-4-oxo-chromen-2-yl)-5-ethyl-phenoxy]cyclobutanecarboxylic acid]	5.99	5.40			
O=C(O)CCCOc1cc(Br)ccc1-c1cc(=O)c2cccc(Cl)c2o1 [Example A055, 4-[5-bromo-2-(8-chloro-4-oxo-chromen-2-yl)phenoxy]butanoic acid]	7.02	5.62			
Cc1cc(-c2cc(=O)c3cccc(Cl)c3o2)c(OC2CC(C(=O)O)C2)cc1Cl (stereo in doubt) [Example B012-B, Trans-3-[5-chloro-2-(8-chloro-4-oxo-chromen-2-yl)-4-methyl-phenoxy]cyclobutanecarboxylic acid]			5.57	5.59	
N#CC1CC(Oc2cc(C(F)(F)F)ccc2-c2cc(=O)c3cccc(Cl)c3o2)C1 (stereo not drawn) [Example B070, 3-[2-(8-chloro-4-oxo-chromen-2-yl)-5-(trifluoromethyl)phenoxy]cyclobutanecarbonitrile]	6.36	6.10			
COc1cc(O[C@H]2C[C@H](C(=O)O)C2)c(-c2cc(=O)c3cccc(Cl)c3o2)cc1C [Example B017, 3-[2-(8-chloro-4-oxo-chromen-2-yl)-5-methoxy-4-methyl-phenoxy]cyclobutanecarboxylic acid]	5.31	5.31			
COc1cc(O[C@H]2C[C@H](C(=O)NS(C)(=O)=O)C2)c(-c2cc(=O)c3cccc(Cl)c3o2)cc1Br [Example B055-B, Trans-3-[4-bromo-2-(8-chloro-4-oxo-chromen-2-yl)-5-methoxy-phenoxy]-N-methylsulfonyl-cyclobutanecarboxamide]	5.41	5.40			
CCOc1ccc(-c2cc(=O)c3c(O)ccc(Cl)c3o2)c(O[C@H]2C[C@H](C(=O)O)C2)c1 [Example B039-B, Trans-3-[2-(8-chloro-5-hydroxy-4-oxo-chromen-2-yl)-5-ethoxy-phenoxy]cyclobutanecarboxylic acid]	4.94				6.15
